In US9447039B2, “Indole carboxamide derivatives and uses thereof” (priority 2012, dated 2016):
In brackets after ≈: the same amount, converted by molar mass.

Tested on: Mycobacterium tuberculosis H37Rv (ATCC #27294)
Assay: Minimum Inhibitory Concentration (MIC50) determination
Assay type: cell-based
Details: 120 h
Procedure: Mycobacterium tuberculosis H37Rv (ATCC #27294) (Mtb) strain was maintained in Middlebrook 7H9 broth medium supplemented with 0.05% Tween 80 and 10% ADS supplement. ADS supplement contains 5% bovine serum albumin fraction V. 2% D-dextrose and 0.8% of sodium chloride. Middlebrook 7H11 agar medium supplemented with 10% OADC (oleic acid, albumin, dextrose and catalase) was used as solid media for growing Mtb. Stock solutions of the compounds were prepared using 90% DMSO.
Minimum Inhibitory Concentration (MIC50) Determination
In Table 5 below, MIC50 is defined as the lowest concentration of the compound that inhibited 50% growth of the wild type strain compared to untreated controls. Test compounds were two or three fold serially diluted in duplicates and spotted by mosquito HTS to 384-well clear plates, resulting in 10 dilutions of each compound. A volume of 50 μl of Mtb culture (final OD600 of 0.02) was added to each well, and the assay plates were incubated at 37° C. for 5 days. Growth of bacteria was measured by reading absorbance at 600 nm using a Spectramax M2 spectrophotometer. MIC50 values were determined by using Activity Base software.

Structure (SMILES) | MIC50
Cc1cc(C)c2cc(C(=O)NC3CCCCC3C(F)(F)F)[nH]c2c1 (stereo not drawn) [Example 4M, 4,6-Dimethyl-N-(2-(trifluoromethyl)cyclohexyl)-1H-indole-2-carboxamide] | 0.585 µM (≈ 0.198 µg/mL)
Cc1cc(C#N)c2cc(C(=O)N[C@@H]3CCCC[C@@H]3C)[nH]c2c1 [Example 4AK, 4-Cyano-6-methyl-N-((1R,2S)-2-methylcyclohexyl)-1H-indole-2-carboxamide] | 0.02 µM (≈ 0.00591 µg/mL)
O=C(NC1CCCCC1)c1cc2c(F)cc(F)cc2[nH]1 [Example 4BB, N-Cyclohexyl-4,6-difluoro-1H-indole-2-carboxamide] | > 20 µM
